Experimental data published in patent US6914045B2, “Glycopeptide antibiotics” (Wyeth Holdings Corporation, priority 2001, dated 2005).
≈ marks a conversion by molar mass, not a printed value.

What was measured:
Test in all cases: in vitro antibacterial evaluation, MIC by broth dilution
Type in all cases: cell-based
[1] = system: Enterococcus sp.; conditions: broth dilution, 18 hours at 35° C.; for MIC Enterococcus faecalis (ATCC 29212): strain ATCC 29212; for MIC Enterococcus faecalis (GC 2242): strain GC 2242; for MIC Enterococcus faecium (GC 2243): strain GC 2243; for MIC Enterococcus faecalis (GC 2691): strain GC 2691; for MIC Enterococcus faecalis (GC 3059): strain GC 3059; for MIC Enterococcus faecalis (GC 4552): strain GC 4552; for MIC Enterococcus faecalis (GC 4553): strain GC 4553; for MIC Enterococcus faecalis (GC 4554): strain GC 4554; for MIC Enterococcus faecium (GC 4556): strain GC 4556; for MIC Enterococcus faecium (GC 4557): strain GC 4557; for MIC Enterococcus avium (GC 4558): strain GC 4558; for MIC Enterococcus faecalis (GC 6189): strain GC 6189
Summary of the method: (§1)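 Following National Committee for Clinical Laboratory Standards recommendations (M7-A2), susceptibility was measured by dilution in Muller-Hinton II […]. Bacteria were seeded at 5×10^5 CFU/mL against compound concentrations from 64 down to 0.06 μg/mL.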

[2] = system: Staphylococcus sp.; conditions: broth dilution, 18 hours at 35° C.; for MIC Staphylococcus aureus (ATCC 29213): strain ATCC 29213; for MIC Staphylococcus aureus (GC 1131): strain GC 1131; for MIC Staphylococcus aureus (GC 3051): strain GC 3051; for MIC Staphylococcus aureus (GC 3053): strain GC 3053; for MIC Staphylococcus aureus (GC 4541): strain GC 4541; for MIC Staphylococcus aureus (GC 4542): strain GC 4542; for MIC Staphylococcus aureus-SMITH (GC 4543): strain GC 4543; for MIC Staphylococcus aureus (GC 4544): strain GC 4544; for MIC Staphylococcus aureus (GC 4545): strain GC 4545; for MIC Staphylococcus haemolyticus (GC 4546): strain GC 4546; for MIC Coagulase Negative Staphylococcus (GC 4547): strain GC 4547; for MIC Coagulase Negative Staphylococcus (GC 4548): strain GC 4548; for MIC Coagulase Negative Staphylococcus (GC 4549): strain GC 4549; for MIC Coagulase Negative Staphylococcus (GC 4551): strain GC 4551; for MIC Coagulase Negative Staphylococcus (GC 6257): strain GC 6257
Summary of the method: as §1

[3] = system: Streptococcus sp.; conditions: broth dilution, 18 hours at 35° C.; for MIC Streptococcus pneumoniae (ATCC 6301): strain ATCC 6301; for MIC Streptococcus pneumoniae (GC 1894): strain GC 1894; for MIC Streptococcus pyogenes (GC 4563): strain GC 4563; for MIC Streptococcus agalactiae (GC 4564): strain GC 4564; for MIC Streptococcus pneumoniae (GC 4565): strain GC 4565
Summary of the method: as §1

[4] = system: Escherichia coli; conditions: broth dilution, 18 hours at 35° C.; for MIC Escherichia coli (ATCC 25922): strain ATCC 25922; for MIC Escherichia coli (GC 4559): strain GC 4559; for MIC Escherichia coli (GC 4560): strain GC 4560
Summary of the method: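 Broth dilution in Muller-Hinton II medium per NCCLS standard M7-A2, with an inoculum of 5×10^5 CFU/mL and antibiotic tested over 64-0.06 μg/mL. MIC was taken as the lowest concentration inhibiting visible growth.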

Row | Structure (SMILES) | MIC Enterococcus faecalis (ATCC 29212) [1] [µg/mL] | MIC Enterococcus faecalis (GC 2242) [1] [µg/mL] | MIC Enterococcus faecium (GC 2243) [1] [µg/mL] | MIC Enterococcus faecalis (GC 2691) [1] [µg/mL] | MIC Enterococcus faecalis (GC 3059) [1] [µg/mL] | MIC Enterococcus faecalis (GC 4552) [1] [µg/mL] | MIC Enterococcus faecalis (GC 4553) [1] [µg/mL] | MIC Enterococcus faecalis (GC 4554) [1] [µg/mL] | MIC Enterococcus faecium (GC 4556) [1] [µg/mL] | MIC Enterococcus faecium (GC 4557) [1] [µg/mL] | MIC Enterococcus avium (GC 4558) [1] [µg/mL] | MIC Enterococcus faecalis (GC 6189) [1] [µg/mL] | MIC Staphylococcus aureus (ATCC 29213) [2] [µg/mL] | MIC Staphylococcus aureus (GC 1131) [2] [µg/mL] | MIC Staphylococcus aureus (GC 3051) [2] [µg/mL] | MIC Staphylococcus aureus (GC 3053) [2] [µg/mL] | MIC Staphylococcus aureus (GC 4541) [2] [µg/mL] | MIC Staphylococcus aureus (GC 4542) [2] [µg/mL] | MIC Staphylococcus aureus-SMITH (GC 4543) [2] [µg/mL] | MIC Staphylococcus aureus (GC 4544) [2] [µg/mL] | other results
1 | CC(c1ccccc1)C1NC(=O)CNC(=O)C(CO)NC(=O)C(C(O)C2CNC(=N)N2C2OC(CO)C(O)C(O)C2O)NC(=O)C(C(O)C2CNC(=N)N2)NC(=O)C(Cc2ccc3oc(SCc4ccc(-c5ccccc5)cc4)nc3c2)NC1=O (centres unmarked) [Example 47] | 8 (≈ 6.7 µM) | 4 (≈ 3.35 µM) | 4 (≈ 3.35 µM) | 32 (≈ 26.8 µM) | 32 (≈ 26.8 µM) | 16 (≈ 13.4 µM) | 4 (≈ 3.35 µM) | 64 (≈ 53.6 µM) | 8 (≈ 6.7 µM) | 4 (≈ 3.35 µM) | 2 (≈ 1.67 µM) | 32 (≈ 26.8 µM) | 16 (≈ 13.4 µM) | 32 (≈ 26.8 µM) | 32 (≈ 26.8 µM) | 16 (≈ 13.4 µM) | 16 (≈ 13.4 µM) | 16 (≈ 13.4 µM) | 8 (≈ 6.7 µM) | 16 (≈ 13.4 µM) | MIC Staphylococcus aureus (GC 4545) [2]: 16 µg/mL (≈ 13.4 µM); MIC Staphylococcus haemolyticus (GC 4546) [2]: 8 µg/mL (≈ 6.7 µM); MIC Coagulase Negative Staphylococcus (GC 4547) [2]: 16 µg/mL (≈ 13.4 µM); MIC Coagulase Negative Staphylococcus (GC 4548) [2]: 2 µg/mL (≈ 1.67 µM); MIC Coagulase Negative Staphylococcus (GC 4549) [2]: 0.5 µg/mL (≈ 0.419 µM); MIC Coagulase Negative Staphylococcus (GC 4551) [2]: 8 µg/mL (≈ 6.7 µM); MIC Streptococcus pneumoniae (ATCC 6301) [3]: 4 µg/mL (≈ 3.35 µM); MIC Streptococcus pneumoniae (GC 1894) [3]: 2 µg/mL (≈ 1.67 µM); MIC Streptococcus pyogenes (GC 4563) [3]: 1 µg/mL (≈ 0.837 µM); MIC Streptococcus agalactiae (GC 4564) [3]: 2 µg/mL (≈ 1.67 µM); MIC Streptococcus pneumoniae (GC 4565) [3]: 8 µg/mL (≈ 6.7 µM); MIC Escherichia coli (ATCC 25922) [4]: >64 µg/mL; MIC Escherichia coli (GC 4559) [4]: >64 µg/mL; MIC Escherichia coli (GC 4560) [4]: 32 µg/mL (≈ 26.8 µM)
2 | CC(c1ccccc1)C1NC(=O)CNC(=O)C(CO)NC(=O)C(C(O)C2CNC(=N)N2C2OC(CO)C(O)C(O)C2O)NC(=O)C(C(O)C2CNC(=N)N2)NC(=O)C(Cc2ccc(O)c(NC=O)c2)NC1=O (stereo not drawn) [Example 18, Cyclo[glycyl-β-methylphenylalanyl-3-formamidotyrosyl-3-(2-iminoimidazolidin-4-yl)seryl-3-(3-hexopyranosyl-2-iminoimidazolidin-4-yl)serylseryl]] | >128 | >128 | >128 | >128 | >128 | >128 | 128 (≈ 126 µM) | >128 | >128 | 64 (≈ 63.1 µM) | 128 (≈ 126 µM) | >128 | >128 | >128 | >128 | >128 | >128 | >128 | >128 | >128 | MIC Staphylococcus aureus (GC 4545) [2]: >128 µg/mL; MIC Staphylococcus haemolyticus (GC 4546) [2]: 128 µg/mL (≈ 126 µM); MIC Coagulase Negative Staphylococcus (GC 4547) [2]: 128 µg/mL (≈ 126 µM); MIC Coagulase Negative Staphylococcus (GC 4548) [2]: 128 µg/mL (≈ 126 µM); MIC Coagulase Negative Staphylococcus (GC 4549) [2]: 64 µg/mL (≈ 63.1 µM); MIC Coagulase Negative Staphylococcus (GC 4551) [2]: >128 µg/mL; MIC Coagulase Negative Staphylococcus (GC 6257) [2]: 128 µg/mL (≈ 126 µM); MIC Streptococcus pneumoniae (ATCC 6301) [3]: 128 µg/mL (≈ 126 µM); MIC Streptococcus pneumoniae (GC 1894) [3]: 64 µg/mL (≈ 63.1 µM); MIC Streptococcus pyogenes (GC 4563) [3]: 128 µg/mL (≈ 126 µM); MIC Streptococcus agalactiae (GC 4564) [3]: 128 µg/mL (≈ 126 µM); MIC Streptococcus pneumoniae (GC 4565) [3]: 128 µg/mL (≈ 126 µM); MIC Escherichia coli (ATCC 25922) [4]: 64 µg/mL (≈ 63.1 µM); MIC Escherichia coli (GC 4559) [4]: 32 µg/mL (≈ 31.6 µM); MIC Escherichia coli (GC 4560) [4]: 16 µg/mL (≈ 15.8 µM)
3 | CC(c1ccccc1)C1NC(=O)CNC(=O)C(CO)NC(=O)C(C(O)C2CNC(=N)N2C2OC(CO)C(O)C(O)C2O)NC(=O)C(C(O)C2CNC(=N)N2)NC(=O)C(Cc2ccc3oc(-c4ccc(N(C)C)cc4)nc3c2)NC1=O (stereo not drawn) [Example 29, Cyclo[3-[2-[4-(dimethylamino)phenyl]-1,3-benzoxazol-5-yl]alanyl-3-(2-iminoimidazolidin-4-yl)-seryl-3-(3-hexopyranosyl-2-iminoimidazolidin-4-yl)serylserylglycyl-β-methylphenyl-alanyl]] | 32 (≈ 28.7 µM) | 32 (≈ 28.7 µM) | 16 (≈ 14.3 µM) | 32 (≈ 28.7 µM) | 64 (≈ 57.4 µM) | 64 (≈ 57.4 µM) | 16 (≈ 14.3 µM) | 32 (≈ 28.7 µM) | 64 (≈ 57.4 µM) | 8 (≈ 7.17 µM) | 16 (≈ 14.3 µM) | 32 (≈ 28.7 µM) | 8 (≈ 7.17 µM) | 8 (≈ 7.17 µM) | 8 (≈ 7.17 µM) | 8 (≈ 7.17 µM) | 8 (≈ 7.17 µM) | 8 (≈ 7.17 µM) | 8 (≈ 7.17 µM) | 8 (≈ 7.17 µM) | MIC Staphylococcus aureus (GC 4545) [2]: 8 µg/mL (≈ 7.17 µM); MIC Staphylococcus haemolyticus (GC 4546) [2]: 4 µg/mL (≈ 3.59 µM); MIC Coagulase Negative Staphylococcus (GC 4547) [2]: 4 µg/mL (≈ 3.59 µM); MIC Coagulase Negative Staphylococcus (GC 4548) [2]: 4 µg/mL (≈ 3.59 µM); MIC Coagulase Negative Staphylococcus (GC 4549) [2]: 2 µg/mL (≈ 1.79 µM); MIC Coagulase Negative Staphylococcus (GC 4551) [2]: 8 µg/mL (≈ 7.17 µM); MIC Coagulase Negative Staphylococcus (GC 6257) [2]: 4 µg/mL (≈ 3.59 µM); MIC Streptococcus pneumoniae (ATCC 6301) [3]: 32 µg/mL (≈ 28.7 µM); MIC Streptococcus pneumoniae (GC 1894) [3]: 32 µg/mL (≈ 28.7 µM); MIC Streptococcus pyogenes (GC 4563) [3]: 16 µg/mL (≈ 14.3 µM); MIC Streptococcus agalactiae (GC 4564) [3]: 32 µg/mL (≈ 28.7 µM); MIC Streptococcus pneumoniae (GC 4565) [3]: 32 µg/mL (≈ 28.7 µM); MIC Escherichia coli (ATCC 25922) [4]: 16 µg/mL (≈ 14.3 µM); MIC Escherichia coli (GC 4559) [4]: 16 µg/mL (≈ 14.3 µM); MIC Escherichia coli (GC 4560) [4]: 4 µg/mL (≈ 3.59 µM)
